Data: patent US20240391871A1, “SUBSTITUTED HYDROXYMETHYL PYRROLIDINES AND MEDICAL USES THEREOF” (ATROGI AB, priority 2021, published 2024)
Structures can show the parent of a compound that is named as a salt.

Experiments:
Type in all cases: cell-based
[1] = tested on: L6-myotubes; assay: Glucose uptake (3H-2-deoxyglucose) in differentiated L6-myotubes; conditions: compound 1×10^−5 M; for Emax at 10 µM: read-out: Biological example 1: glucose uptake, activity compared to that of isoproterenol; for Biological example 1: glucose uptake, activity compared to that of isoproterenol: hydrochloride
Experimental: (§1) L6-myoblasts were grown in Dulbecco's Modified Eagle's Medium (DMEM) containing 1 g/L glucose supplemented with 10% fetal bovine serum, 2 mM L-Glutamine, 50 U/mL penicillin, 50 μg/mL streptomycin and 10 mM HEPES. Cells were plated at 1×10^5 cells per mL in 24-well plates. After reaching 90% confluence the cells were grown in medium containing 2% FBS for 7 days where upon cells differentiated into myotubes.
Differentiated L6-myotubes were serum-starved overnight in medium containing 0.5% fatty-acid free BSA and stimulated with an agonist, with a final concentration of 1×10^−5 M. After 1 h 40 min the cells were washed with warm glucose free medium or PBS twice and another portion of agonist was added to the glucose free medium. After 20 min the cells were exposed to 50 nM ^3H-2-deoxyglucose for 10 min before washed with ice cold glucose free medium or PBS three times and lysed with 0.2 M NaOH, 400 μL/well, for 1 h at 60° C. The cell lysate was mixed with 4 mL scintillation buffer (Emulsifier Safe, Perkin Elmer) and the radioactivity was detected in a β-counter (Tri-Carb 4810TR, Perkin Elmer). The activity for each compound is compared to that of isoproterenol.

[2] = tested on: Intracellular cAMP levels; assay: Measurement of intracellular cAMP levels in differentiated L6 cells; conditions: compound 1×10^−5 M, 15 min; for Emax at 10 µM: Rattus norvegicus, L6, 0.25 h, read-out: Biological example 2: intracellular cAMP levels, activity compared to that of isoproterenol
Experimental: as §1
Differentiated cells were serum-starved overnight and stimulated with an agonist, final concentration 1×10^−5 M, for 15 min in stimulation buffer (HBSS supplemented with 1% BSA, 5 mM HEPES and 1 mM IBMX, pH 7.4). The medium was aspirated and 100 μL of 95% EtOH was added to each well of the 24-well plate and cells were kept at −20° C. overnight. The EtOH was allowed to evaporate and 500 μL of lysis buffer (1% BSA, 5 mM HEPES and 0.3% Tween-20, pH 7.4) was added to each well. The plate was kept at −80° C. for 30 min and then at −20° C. until the day of detection when the samples were thawed. Intracellular cAMP levels were detected using an alpha screen cAMP kit (6760635D from Perkin Elmer). The activity for each compound is compared to that of isoproterenol.

[3] = tested on: L6-myotubes; assay: Glucose uptake in L6-myotubes in the presence of the β2-antagonist ICI-118,551; conditions: compound 1×10^−5 M, ICI-118,551 1×10^−5 M
Experimental: as §1
Differentiated L6-myotubes were serum-starved overnight in medium containing 0.5% fatty-acid free BSA and were incubated with the β2-adrenergic receptor antagonist ICI-118,551 at a final concentration of 1×10^−5 M for 30 min. The cells were stimulated with a compound of the invention, at a final concentration of 1×10^−5 M. After 1 h 40 min the cells were washed twice with warm, glucose free medium or PBS and additional portions of the compound of the invention and the antagonist were added. After 20 min the cells were exposed to 50 nM ^3H-2-deoxyglucose for 10 min before washed with ice cold glucose free medium or PBS three times and lysed with 0.2 M NaOH, 400 μL/well, for 1 h at 60° C. The cell lysate was mixed with 4 mL scintillation buffer (Emulsifier Safe, Perkin Elmer) and the radioactivity was detected in a β-counter (Tri-Carb 4810TR, Perkin Elmer). The activity for each compound is compared to that of isoproterenol.

In the case of `CO[C@H]1CC[C@H](C[C@H]2CC[C@H]([C@H](O)c3ccccc3F)N2)CC1.Cl` [Example 7, (R)-(2-Fluorophenyl)((2R,5R)-5-(((1r,4S)-4-methoxycyclohexyl)methyl) -pyrrolidin-2-yl)methanol hydrochloride], the Emax at 10 µM [1] is reported as over 75%, the Emax at 10 µM [2] is reported as 25 to 50% and the “Biological example 3: glucose uptake in the presence of the β2-antagonist ICI-118,551, activity compared to that of isoproterenol” value [3] is reported as “− (less than 25%)”.
`CO[C@H]1CC[C@H](C[C@@]2(C)CC[C@H]([C@@H](O)c3cccc(F)c3)N2)CC1` [Example 18, (S)-(3-Fluorophenyl)(2R,5R)-5-(((1r,4R)-4-methoxycyclohexyl)methyl)-5-methylpyrrolidin-2-yl)methanol hydrochloride] was tested, and the Emax at 10 µM [1] was 50 to 75% and the Emax at 10 µM [2] was under 25%.
For `CC(=O)N[C@H]1CC[C@H](C[C@@H]2CC[C@H]([C@H](O)c3cccc(F)c3)N2)CC1.Cl` [Example 42, N-((1S,4r)-4-(((2S,5R)-5-((R)-(3-Fluorophenyl)(hydroxy)methyl)pyrrolidin-2-yl)methyl)cyclohexyl)acetamide hydrochloride], the “Biological example 1: glucose uptake, activity compared to that of isoproterenol” value [1] was “++ (between 75 and 50%)” and the “Biological example 2: intracellular cAMP levels, activity compared to that of isoproterenol” value [2] was “− (less than 25%)”.
`COc1ccc(C[C@@H]2CC[C@H]([C@H](O)c3cncc(F)c3)N2)cc1` [Example 21, (R)-(5-Fluoropyridin-3-yl)((2R,5S)-5-(4-methoxybenzyl)pyrrolidin-2-yl) -methanol dihydrochloride] was tested, and the Emax at 10 µM [1] was over 75% and the Emax at 10 µM [2] was under 25%.
Work on `CS(=O)(=O)N[C@H]1CC[C@@H](C[C@@H]2CC[C@H]([C@H](O)c3cccc(F)c3)N2)CC1` [Example 38, N-((1R,4s)-4-(((2S,5R)-5-((R)-(3-Fluorophenyl)(hydroxy)methyl)pyrrolidin-2-yl)methyl)cyclohexyl)methanesulfonamide hydrochloride] yielded an Emax at 10 µM [1] of over 75% and an Emax at 10 µM [2] of under 25%.
In the case of `CC(=O)N[C@H]1CC[C@H](C[C@@H]2CC[C@H]([C@H](O)c3cccc(F)c3)N2)CC1.Cl` [Example 34, N-((1S,4r)-4-(((2S,5R)-5-((R)-(3-Fluorophenyl)(hydroxy)methyl)pyrrolidin-2-yl)methyl)cyclohexyl)acetamide hydrochloride], the “Biological example 1: glucose uptake, activity compared to that of isoproterenol” value [1] is reported as “+++ (more than 75% of that of isoproterenol)” and the Emax at 10 µM [2] is reported as under 25%.
For `CO[C@H]1CC[C@H](C[C@@H]2CC[C@H]([C@H](O)c3ccccc3F)N2)CC1.Cl` [Example 5], the “Biological example 3: glucose uptake in the presence of the β2-antagonist ICI-118,551, activity compared to that of isoproterenol” value [3] was “− (less than 25%)”.
`O[C@@H](c1cncc(F)c1)[C@H]1CC[C@@H](Cc2ccc(Cl)cc2)N1` [Example 30, (S)-(2R,5S)-5-(4-Chlorobenzyl)pyrrolidin-2-yl)(5-fluoropyridin-3-yl) -methanol dihydrochloride] showed an Emax at 10 µM [1] of 50 to 75% and an Emax at 10 µM [2] of under 25%.
`COc1ccc(C[C@H]2CC[C@H]([C@H](O)c3cncc(F)c3)N2)cc1` [Example 23, (R)-(5-Fluoropyridin-3-yl)(2R,5R)-5-(4-methoxybenzyl)pyrrolidin-2-yl)methanol dihydrochloride] gave an Emax at 10 µM [1] of over 75% and an Emax at 10 µM [2] of under 25%.
For `CC(=O)N(Cc1ccccc1)[C@H]1CC[C@H](C[C@@H]2CC[C@H]([C@H](O)c3cccc(F)c3)N2)CC1` [Example 41, N-Benzyl-N-((1S,4r)-4-(((2S,5R)-5-((R)-(3-fluorophenyl)(hydroxy) -methyl)pyrrolidin-2-yl)methyl)cyclohexyl)acetamide hydrochloride], the Emax at 10 µM [1] was 25 to 50% and the Emax at 10 µM [2] was under 25%.
`CO[C@H]1CC[C@H](C[C@H]2CC[C@H]([C@@H](O)c3cncc(F)c3)N2)CC1` [Example 12, (S)-(5-Fluoropyridin-3-yl)(2R,5R)-5-(((1r,4S)-4-methoxycyclohexyl) -methyl)pyrrolidin-2-yl)methanol dihydrochloride] showed an Emax at 10 µM [1] of 25 to 50% and an Emax at 10 µM [2] of under 25%.
For `O[C@H](c1cncc(F)c1)[C@H]1CC[C@H](Cc2ccc(Cl)cc2)N1` [Example 31, (R)-((2R,5R)-5-(4-Chlorobenzyl)pyrrolidin-2-yl)(5-fluoropyridin-3-yl) -methanol dihydrochloride], the Emax at 10 µM [1] was over 75% and the Emax at 10 µM [2] was under 25%.
With `CS(=O)(=O)N[C@H]1CC[C@H](C[C@@H]2CC[C@H]([C@@H](O)c3cccc(F)c3)N2)CC1` [Example 48, N-((1S,4r)-4-(((2S,5R)-5-((S)-(3-Fluorophenyl)(hydroxy)methyl)pyrrolidin-2-yl)methyl)cyclohexyl)methanesulfonamide hydrochloride] the Emax at 10 µM [1] was 50 to 75% and the Emax at 10 µM [2] was under 25%.
Work on `CS(=O)(=O)N(Cc1ccccc1)[C@H]1CC[C@@H](C[C@@H]2CC[C@H]([C@@H](O)c3cccc(F)c3)N2)CC1` [Example 39, N-Benzyl-N-((1R,4s)-4-(((2S,5R)-5-((S)-(3-fluorophenyl)(hydroxy) -methyl)pyrrolidin-2-yl)methyl)cyclohexyl)methanesulfonamide hydrochloride] yielded an Emax at 10 µM [1] of 50 to 75% and an Emax at 10 µM [2] of under 25%.
For `COc1ccc(C[C@H]2CC[C@H]([C@H](O)c3cccc(F)c3)N2)cc1` [Example 15, (R)-(3-Fluorophenyl)((2R,5R)-5-(4-methoxybenzyl)pyrrolidin-2-yl)methanol], the Emax at 10 µM [1] was over 75% and the Emax at 10 µM [2] was under 25%.
Work on `CS(=O)(=O)N[C@H]1CC[C@@H](C[C@@H]2CC[C@H]([C@@H](O)c3cccc(F)c3)N2)CC1` [Example 40, N-((1R,4s)-4-(((2S,5R)-5-((S)-(3-fluorophenyl)(hydroxy)methyl)pyrrolidin-2-yl)methyl)cyclohexyl)methanesulfonamide hydrochloride] yielded an Emax at 10 µM [1] of 50 to 75% and an Emax at 10 µM [2] of under 25%.
In the case of `COc1ccc(C[C@@]2(C)CC[C@H]([C@@H](O)c3cccc(F)c3)N2)cc1` [Example 20, (S)-(3-Fluorophenyl)((2R,5R)-5-(4-methoxybenzyl)-5-methylpyrrolidin-2-yl)methanol hydrochloride], the Emax at 10 µM [1] is reported as over 75% and the Emax at 10 µM [2] is reported as under 25%.
In the case of `CS(=O)(=O)N(Cc1ccccc1)[C@H]1CC[C@@H](C[C@@H]2CC[C@H]([C@H](O)c3cccc(F)c3)N2)CC1` [Example 37, N-Benzyl-N-((1R,4s)-4-(((2S,5R)-5-((R)-(3-fluorophenyl)(hydroxy)methyl) -pyrrolidin-2-yl)methyl)cyclohexyl)methanesulfonamide hydrochloride], the Emax at 10 µM [1] is reported as 50 to 75% and the Emax at 10 µM [2] is reported as under 25%.
With `CO[C@H]1CC[C@H](C[C@H]2CC[C@H]([C@@H](O)c3ccccc3F)N2)CC1` [Example 8, (S)-(2-Fluorophenyl)((2R,5R)-5-(((1r,4S)-4-methoxycyclohexyl)methyl) -pyrrolidin-2-yl)methanol hydrochloride] the Emax at 10 µM [1] was 50 to 75% and the Emax at 10 µM [2] was under 25%.
In the case of `O[C@H](c1cccc(F)c1)[C@H]1CC[C@H](Cc2ccc(Cl)cc2)N1` [Example 27, (R)-((2R,5R)-5-(4-Chlorobenzyl)pyrrolidin-2-yl)(3-fluorophenyl)methanol hydrochloride], the Emax at 10 µM [1] is reported as over 75% and the Emax at 10 µM [2] is reported as under 25%.
For `CS(=O)(=O)N(Cc1ccccc1)[C@H]1CC[C@H](C[C@@H]2CC[C@H]([C@@H](O)c3cccc(F)c3)N2)CC1` [Example 47, N-Benzyl-N-((1S,4r)-4-(((2S,5R)-5-((S)-(3-fluorophenyl)(hydroxy) -methyl)pyrrolidin-2-yl)methyl)cyclohexyl)methanesulfonamide hydrochloride], the Emax at 10 µM [1] was under 25% and the Emax at 10 µM [2] was under 25%.
